Results: US20160257651A1, “NOVEL COMPOUND WITH ANTIBACTERIAL ACTIVITY” (priority 2013, published 2016)
≈ marks a conversion by molar mass, not a printed value. Read-outs that look alike come from different tables or passages of the source.

Tests used:
[1] = tested on: S. aureus FDA209P (ATCC 6538P); assay: microbe, parasite or virus in culture; assay type: cell-based, Staphylococcus aureus; conditions: Staphylococcus aureus, ATCC 6538P / FDA209P / MSSA, quinolone-susceptible MSSA, ParC 80S, GyrA 84S, read-out: MIC
Method: (§1) Then, the cell suspension was diluted 500 times with CAMHB mentioned above.

S. aureus Mu50 = assay: microbe, parasite or virus in culture; assay type: cell-based, Staphylococcus aureus; conditions: for MIC ratio (Mu50 MIC/FDA209P MIC): MIC for S. aureus Mu50 / MIC for S. aureus FDA209P; for MIC: S. aureus Mu50, quinolone-resistant MRSA, ParC S80F, GyrA S84L
Method: as §1

S. aureus Mu50 NR1-1 = assay: microbe, parasite or virus in culture; assay type: cell-based; conditions: Staphylococcus aureus, MU50NR11
Method: as §1

[2] = tested on: S. aureus MR5867 three-step mutant; assay: MIC against stepwise QRDR mutants; assay type: cell-based; conditions: Staphylococcus aureus
Source text: (§2) In order to further verify that the action site of the compound J-131CP is gyrA, there were examined antibacterial activities against the MRSA, S. aureus MR5867, and stepwise-mutated strains (one-step mutant strain to three-step mutant strain) of S. aureus MR5867 in which mutation was introduced into QRDR, as well as the MSSA, S. aureus MS5952, and stepwise-mutated strains (one-step mutant strain to three-step mutant strain) of S. aureus MS5952 in which mutation was introduced into QRDR (those strains mentioned above are described in Antimicrob. Agents Chemother., 42(8), pp. 1917-1922, 1998) by the following methods. The strains used for this test example are available from the inventors of the present invention.
(§3) The compound J-131CP and quinolones were prepared in the same manner as that of Test Example 1-1.
as §1
(§4) CAMHB containing each of the compound J-131CP and quinolones at each concentration was added to each well of a 96-well plate in a volume of 50 μL/well, the aforementioned cell suspension diluted 500 times was added to the well in a volume of 50 μL/well, and stationary culture was carried out overnight at 37° C. in the same manner as that of Test Example 1-1.

[3] = tested on: S. aureus MR5867 two-step mutant; assay: MIC against stepwise QRDR mutants; assay type: cell-based; conditions: Staphylococcus aureus
Source text: as §2, §3, §1, §4

S. aureus MR5867 = assay: MIC against stepwise QRDR mutants; assay type: cell-based; conditions: Staphylococcus aureus
Source text: as §2, §3, §1, §4

[4] = tested on: S. aureus MS5952 three-step mutant; assay: MIC against stepwise QRDR mutants; assay type: cell-based; conditions: Staphylococcus aureus
Source text: as §2, §3, §1, §4

[5] = tested on: S. aureus MS5952 two-step mutant; assay: MIC against stepwise QRDR mutants; assay type: cell-based; conditions: Staphylococcus aureus
Source text: as §2, §3, §1, §4

S. aureus MS5952 = assay: MIC against stepwise QRDR mutants; assay type: cell-based; conditions: Staphylococcus aureus
Source text: as §2, §3, §1, §4

[6] = tested on: Staphylococcus aureus ATCC29213 (MSSA); assay: MIC, S. aureus categories (Test Example 3); assay type: cell-based; conditions: strain ATCC29213, MSSA
Method: (§5) The antibacterial activities of the compound J-131CP against Staphylococcus aureus strains belonging to the five categories of Staphylococcus aureus, i.e., MSSA, MRSA, community-acquired-infection type MRSA (CA-MRSA), VISA, and VRSA, were investigated.
as §3
(§6) Cell suspensions were prepared in the same manner as that of Test Example 1-1 described in the section of measurement of MIC in Test Example 1-1, except that the strains mentioned in Table 6 were used as Staphylococcus aureus, and MICs of the compound J-131CP and quinolones as the control were determined for the strains in the same manner as that of Test Example 1-1. In Table 6, the amino acid substitution mutations in QRDR of the strains are underlined.

[7] = tested on: Staphylococcus aureus BR2 (VISA); assay: MIC, S. aureus categories (Test Example 3); assay type: cell-based
Method: as §5, §3, §6

[8] = tested on: Staphylococcus aureus KSA36 (MRSA); assay: MIC, S. aureus categories (Test Example 3); assay type: cell-based
Method: as §5, §3, §6

[9] = tested on: Staphylococcus aureus MI (VISA); assay: MIC, S. aureus categories (Test Example 3); assay type: cell-based
Method: as §5, §3, §6

[10] = tested on: Staphylococcus aureus MW2 (CA-MRSA); assay: MIC, S. aureus categories (Test Example 3); assay type: cell-based; conditions: strain MW2, CA-MRSA
Method: as §5, §3, §6

[11] = tested on: Staphylococcus aureus NCTC8325 (MSSA); assay: MIC, S. aureus categories (Test Example 3); assay type: cell-based; conditions: strain NCTC8325, MSSA
Method: as §5, §3, §6

[12] = tested on: Staphylococcus aureus USA300FPR (CA-MRSA); assay: MIC, S. aureus categories (Test Example 3); assay type: cell-based
Method: as §5, §3, §6

[13] = tested on: Staphylococcus aureus VRS1 (VRSA); assay: MIC, S. aureus categories (Test Example 3); assay type: cell-based
Method: as §5, §3, §6

[14] = tested on: Staphylococcus aureus VRS3a (VRSA); assay: MIC, S. aureus categories (Test Example 3); assay type: cell-based
Method: as §5, §3, §6

[15] = tested on: Staphylococcus aureus VRS5 (VRSA); assay: MIC, S. aureus categories (Test Example 3); assay type: cell-based
Method: as §5, §3, §6

E. faecium NCTC12202 = assay: MIC against Enterococcus bacteria; assay type: cell-based, Enterococcus faecium; conditions: Enterococcus faecium, NCTC 12202 / VRE
Method: (§7) Antibacterial activities of the compound J-131CP against Enterococcus bacteria (Enterococcus faecium and Enterococcus faecalis) were examined by the following methods.
as §3
(§8) Cell suspensions were prepared in the same manner as that of Test Example 1-1 described in the section of measurement of MIC in Test Example 1-1, except that the Enterococcus bacterium strains mentioned in Table 8 were used instead of Staphylococcus aureus, and MICs of the compound J-131CP and quinolones as control were determined for the strains in the same manner as that of Test Example 1-1 described in the section of measurement of MIC in Test Example 1-1. In Table 8, the amino acid substitution mutations in QRDR of the strains are underlined.

E. faecium RPR2 = assay: MIC against Enterococcus bacteria; assay type: cell-based, Enterococcus faecium
Method: as §7, §3, §8

E. faecalis 36-15722 = assay: MIC against Enterococcus bacteria; assay type: cell-based, Enterococcus faecalis; conditions: Enterococcus faecalis, 3615722
Method: as §7, §3, §8

[16] = E. faecalis 36-15722, quinolone-resistant, ParC 80Ile, GyrA 84Ile, read-out: MIC
[17] = Staphylococcus aureus, read-out: MIC
[18] = E. faecium NCTC12202, VRE, quinolone-susceptible, read-out: MIC

Row | Compound | MIC [1] [µg/mL] | MIC ratio (Mu50 MIC/FDA209P MIC) (S. aureus Mu50) | MIC (S. aureus Mu50 NR1-1) [µg/mL] | MIC [2] [µg/mL] | MIC [3] [µg/mL] | MIC (S. aureus MR5867) [µg/mL] | MIC [4] [µg/mL] | MIC [5] [µg/mL] | MIC (S. aureus MS5952) [µg/mL] | MIC ([6]; read-out: MIC) [µg/mL] | MIC [7] [µg/mL] | MIC [8] [µg/mL] | MIC [9] [µg/mL] | MIC [12] [µg/mL] | MIC [13] [µg/mL] | MIC [14] [µg/mL] | MIC [15] [µg/mL] | MIC (E. faecium RPR2; Enterococcus faecium, RPR2) [µg/mL] | MIC (E. faecalis 36-15722; [16]) [µg/mL] | MIC [11, 17] [µg/mL] | also measured
1 | O=c1cc(CO)c2cc(F)c(-c3ccc(O)cc3)cc2n1C1CC1 [J-131CP, 1-cyclopropyl-6-fluoro-4-(hydroxymethyl)-7-(4-hydroxyphenyl)-1,2-dihydroquinolin-2-one] | 0.25 (≈ 0.768 µM) | ≦0.25 | 0.25 (≈ 0.768 µM) | ≤ 0.06 | > 0.06 | 0.25 (≈ 0.768 µM) | 0.125 (≈ 0.384 µM) | 0.125 (≈ 0.384 µM) | 0.25 (≈ 0.768 µM) | 0.25 (≈ 0.768 µM) | ≤ 0.06 | ≤ 0.06 | ≤ 0.06 | ≤ 0.06 | ≤ 0.06 | ≤ 0.06 | ≤ 0.06 | 4 (≈ 12.3 µM) | 1 (≈ 3.07 µM) | – | MIC (S. aureus Mu50; Staphylococcus aureus, MRSA): ≤ 0.06 µg/mL; MIC [6]: 0.125 to 0.25 µg/mL (≈ 0.384 to 0.768 µM); MIC ([10]; Staphylococcus aureus, MRSA): 0.125 to 0.25 µg/mL (≈ 0.384 to 0.768 µM); MIC [10]: 0.125 µg/mL (≈ 0.384 µM); MIC ([11]; Staphylococcus aureus): 0.125 to 0.25 µg/mL (≈ 0.384 to 0.768 µM); MIC [11]: 0.125 µg/mL (≈ 0.384 µM); MIC (E. faecium NCTC12202): 8 µg/mL (≈ 24.6 µM)
2 | O=C(O)c1cn(C2CC2)c2cc(N3CCNCC3)c(F)cc2c1=O [CIP, ciprofloxacin] | – | – | – | 128 (≈ 386 µM) | 32 (≈ 96.6 µM) | 0.25 (≈ 0.754 µM) | 64 (≈ 193 µM) | 8 (≈ 24.1 µM) | 0.25 (≈ 0.754 µM) | 0.25 (≈ 0.754 µM) | 4 (≈ 12.1 µM) | 128 (≈ 386 µM) | 16 (≈ 48.3 µM) | 16 (≈ 48.3 µM) | 128 (≈ 386 µM) | 64 (≈ 193 µM) | > 128 | > 128 | – | 0.25 (≈ 0.754 µM) | MIC [10, 17]: 0.25 µg/mL (≈ 0.754 µM); MIC (E. faecium NCTC12202; [18]): 0.5 µg/mL (≈ 1.51 µM); MIC (E. faecalis 36-15722): 64 µg/mL (≈ 193 µM)
3 | CCn1cc(C(=O)O)c(=O)c2cc(F)c(N3CCNCC3)cc21 [NOR, norfloxacin] | 0.25 (≈ 0.783 µM) | 512 | 16 (≈ 50.1 µM) | > 128 | 64 (≈ 200 µM) | 1 (≈ 3.13 µM) | 128 (≈ 401 µM) | 16 (≈ 50.1 µM) | 1 (≈ 3.13 µM) | 1 (≈ 3.13 µM) | 64 (≈ 200 µM) | > 128 | 128 (≈ 401 µM) | 32 (≈ 100 µM) | > 128 | 128 (≈ 401 µM) | > 128 | > 128 | 128 (≈ 401 µM) | 1 (≈ 3.13 µM) | MIC [10, 17]: 0.5 µg/mL (≈ 1.57 µM); MIC (E. faecium NCTC12202; [18]): 2 µg/mL (≈ 6.26 µM)
4 | C[C@H]1COc2c(N3CCN(C)CC3)c(F)cc3c(=O)c(C(=O)O)cn1c23 [LVX, levofloxacin] | ≤ 0.06 | ≧128 | 1 (≈ 2.77 µM) | 16 (≈ 44.3 µM) | 8 (≈ 22.1 µM) | 0.125 (≈ 0.346 µM) | 32 (≈ 88.6 µM) | 4 (≈ 11.1 µM) | 0.25 (≈ 0.692 µM) | – | 8 (≈ 22.1 µM) | > 128 | 32 (≈ 88.6 µM) | 4 (≈ 11.1 µM) | 16 (≈ 44.3 µM) | 16 (≈ 44.3 µM) | > 128 | > 128 | 36 (≈ 99.6 µM) | 0.25 (≈ 0.692 µM) | MIC (S. aureus Mu50): 8 µg/mL (≈ 22.1 µM); MIC (S. aureus Mu50; Staphylococcus aureus, MRSA): 8 to 128 µg/mL (≈ 22.1 to 354 µM); MIC [6]: 0.125 µg/mL (≈ 0.346 µM); MIC ([10]; Staphylococcus aureus, MRSA): 0.125 µg/mL (≈ 0.346 µM); MIC (E. faecium NCTC12202; [18]): 1 µg/mL (≈ 2.77 µM); MIC (E. faecium RPR2; E. faecium RPR2, quinolone-resistant, ParC 82Ile, GyrA 84Ile 88Lys): >128 µg/mL
5 | CC1COc2c(N3CCN(C)CC3)c(F)cc3c(=O)c(C(=O)O)cn1c23 (centres unmarked) [OFX, ofloxacin] | 0.125 (≈ 0.346 µM) | 128 | 2 (≈ 5.53 µM) | 64 (≈ 177 µM) | 16 (≈ 44.3 µM) | 0.25 (≈ 0.692 µM) | 64 (≈ 177 µM) | 8 (≈ 22.1 µM) | 0.25 (≈ 0.692 µM) | 0.25 (≈ 0.692 µM) | 64 (≈ 177 µM) | > 128 | 128 (≈ 354 µM) | 16 (≈ 44.3 µM) | 32 (≈ 88.6 µM) | 32 (≈ 88.6 µM) | > 128 | > 128 | 64 (≈ 177 µM) | 0.25 (≈ 0.692 µM) | MIC (S. aureus Mu50): 16 µg/mL (≈ 44.3 µM); MIC (S. aureus Mu50; Staphylococcus aureus, MRSA): 8 to 128 µg/mL (≈ 22.1 to 354 µM); MIC [10, 17]: 0.5 µg/mL (≈ 1.38 µM); MIC (E. faecium NCTC12202; [18]): 1 µg/mL (≈ 2.77 µM)
